According to patent US20070015733A1, “Aryl Phosphate Derivatives of d4T having Activity Against Resistant HIV Strains” (Parker Hughes Institute, priority 1998, published 2007):

Test system: zidovudine-resistant primary clinical HIV-1 isolates
Experiment: p24 drug susceptibility assay, NRTI-/zidovudine-resistant primary clinical HIV-1 isolates in PBMC
Format: cell-based
Conditions: Human immunodeficiency virus 1, PBMC
Protocol: Viruses. […] The HIV-1 strains HTLVIIIB (wildtype RT, NRTI-sensitive, NNRTI-sensitive), A17 (Y181 C mutant, NNRTI-resistant), A17-variant (Y181C+K103N mutant, NNRTI-resistant), and RT-MDR (M41 L, V106N, T215Y; NRTI-resistant, NNRTI-resistant) were also obtained from the AIDS Research and Reference Reagent Program, NIAID.
Antiviral susceptibility assays. Phenotypic drug susceptibility studies of HIV-1 isolates and strains were performed by measuring the production of the p24 gag protein in peripheral blood mononuclear cells (PBMC) from seronegative healthy volunteers in the presence of increasing concentrations of the anti-HIV agent using the quantitative Coulter HIV-1 p24 antigen ezyme immunoassay (EIA) and HIV-1 p24 Antigen Kinetic Standard (Beckman Coulter), as previously described (Uckun, 1998, Antimicrobial Agents and Chemotherapy 37(4): 835-38). Informed consent was obtained from the blood donors according to DHHS guidelines using consent forms approved by the Institutional Review Board. In brief, PBMC were cultured for 72 h in RPMI 1640 medium (Gibco) supplemented with 20% (vol/vol) heat-inactivated fetal bovine serum, 5% human interleukin-2 (Zeptometrix), 2 mM L-glutamine, 25 mM HEPES, 2 g/L NaHCO3, 100 U/ml penicillin/streptomycin (Gibco), 50 μg/ml gentamicin (Gibco), and 5 μg/ml phytohemagglutinin-P (PHA-P) (Sigma) for 24-72 hours prior to exposure to HIV at a multiplicity of infection of 0.001-0.1 during a 1-h adsorbtion period at 37±1° C. in a humidified 5-7% CO2 atmosphere. Subsequently, cells were cultured in 96-well microtiter plates (100 μl/well; 2×10^6 cells/ml, triplicate wells) in the presence of the anti-HIV agents at 6-7 different concentrations ranging from 0.0001 μM to 100 μM, and 25 μL aliquots of culture supernatants were removed from the wells on day 6 after infection for p24 EIA, as previously described (Uckun, 1998, Antimicrobial Agents and Chemotherapy, 37(4):835-38). Controls included uninfected and untreated cells (background control) and infected but untreated (virus control) cells. The p24 EIA utilizes a murine monoclonal antibody to HIV core protein used to coat microwell strips to which the antigen present in the test culture supernatant samples binds. Percent inhibition of viral replication was calculated by comparing the p24 values from the test substance-treated infected cells with p24 values from untreated infected cells (i.e., virus controls). The IC50 values were determined using the Statview statistics program (SAS Institute, Inc.). In parallel, the effects of various treatments on cell viability were also examined as previously described (Uckun, 1998, Antimicrobial Agents and Chemotherapy, 42:383-388). In brief, noninfected PBMC were treated with each compound for 5 days under identical experimental conditions. A microculture tetrazolium assay (MTA) was performed to quantitate cellular proliferation (Uckun, 1998, Antimicrobial Agents and Chemotherapy, 42:383-388).
Phenotypic drug susceptibility studies of HIV-1 isolates and strains were performed by measuring the production of the p24 gag protein in peripheral blood mononuclear cells (PBMC) from seronegative healthy volunteers in the presence of increasing concentrations of the anti-HIV agent using the quantitative Coulter HIV-1 p24 antigen enzyme immunoassay (EIA) and HIV-1 p24 Antigen Kinetic Standard (Beckman Coulter), as previously described. StatView was used in the calculation of the IC50 values from each set of triplicate wells using the linearized form of an exponential equation (lnY=lnb0+b1X; where Y=% inhibition, X=drug concentration). The inhibition constants were log10 transformed to homogenize the variances within each group. […] P-values below 0.05 were deemed significant (JMP Software, SAS).

## COC(=O)C(C)NP(=O)(OC[C@@H]1C=C[C@H](n2cc(C)c(=O)[nH]c2=O)O1)Oc1ccc(Br)cc1 (some centres unmarked) [Compound 1c, d4T-5′-[p-bromo-phenylmethoxyalaninyl phosphate]]
Isolate 92BR019 (D67N, L214F, T215D, K219Q), PBMC
  IC50: 2 nM
Isolate BR/92/019, PBMC, p24
  IC50: 2 nM
Isolate C140 (M41L, M184V, T215Y), PBMC
  IC50: 2.5 nM
Isolate C140, PBMC, p24
  IC50: 2.5 nM
Isolate C467-4 (K20R, D67N, K70R, Y188L, T215F, K219Q), PBMC
  IC50: 42 nM
Isolate C467-4, PBMC, p24
  IC50: 42 nM
Isolate G190-6, PBMC, p24
  IC50: 2.8 nM
Isolate G691-2 (mutations N.D.), PBMC
  IC50: 5 nM
Isolate G704-2 (M41L, D67N, K70R, L210W, T215Y), PBMC
  IC50: 3.2 nM
Isolate G704-2, PBMC, p24
  IC50: 3.2 nM
Isolate G780-1 (M41L, D67N, K70R, T215F, K219Q), PBMC
  IC50: 35 nM
Isolate G780-1, PBMC, p24
  IC50: 35 nM
Isolate G890-1 (K20R, M41L, D67N, T69N, K70R, L210W, T215Y), PBMC
  IC50: 6 nM
Isolate G890-1, PBMC, p24
  IC50: 6 nM
Isolate G910-6 (M41L, D67N, K70R, T215Y, K219Q), PBMC
  IC50: 2.8 nM
Isolate P798-1 (M41L, T215Y), PBMC
  IC50: 7.5 nM
Isolate P798-1, PBMC, p24
  IC50: 7.5 nM
Isolate Q252-2 (M41L, L210W, T215Y), PBMC
  IC50: 1.9 nM
Isolate Q252-2, PBMC, p24
  IC50: 1.9 nM
Isolate R416-10 (M41L, T215Y), PBMC
  IC50: 0.2 nM
Isolate R416-10, PBMC, p24
  IC50: 0.2 nM
Isolate S159-2 (M41L, K103N, T215Y), PBMC
  IC50: 0.78 nM
Isolate S159-2, PBMC, p24
  IC50: 0.8 nM
Isolate S762-4 (M41L, T215Y), PBMC
  IC50: 8 nM
Isolate S762-4, PBMC, p24
  IC50: 8 nM
Isolate T156-3 (M41L, E44D, D67N, T69D, L210W, T215Y), PBMC
  IC50: 3.3 nM
Isolate T156-3, PBMC, p24
  IC50: 3.3 nM
Isolate X165-8 (D67N, T69N, K70R, K103N, Y181C, T215F, K219E), PBMC
  IC50: 13 nM
Isolate X165-8, PBMC, p24
  IC50: 13 nM
Isolate X165-9 (K20R, D67N, K103N, T215Y), PBMC
  IC50: 2 nM
Isolate X165-9, PBMC, p24
  IC50: 2 nM
Isolate X267-1 (L74V), PBMC, p24
  IC50: 0.2 nM
Isolate X267-1 (M41L, L74V, L210W, T215Y), PBMC
  IC50: 0.15 nM
Isolate X267-2 (M41L, T215Y), PBMC
  IC50: 0.18 nM
Isolate X267-2, PBMC, p24
  IC50: 0.2 nM
Isolate X267-5 (M41L, F116S, T215Y), PBMC
  IC50: 30 nM
Isolate X267-5, PBMC, p24
  IC50: 30 nM
Isolate Y270-7 (M41W, Y188L, T215N), PBMC
  IC50: 9 nM
Isolate Y270-7, PBMC, p24
  IC50: 9 nM
Primary isolate C467-4 (Y188L), Table 14
  IC50: 42 nM
Primary isolate S159-2 (K103N), Table 14
  IC50: < 0.1 nM
